Measured values published in paper PMC12677599 (Advanced Science, 2025).
“And” between values parts separate entries of the source, which are not always exact repeats. Equal entries are not always repeated. Where a SMILES comes first, the peptide text is derived from it. Where no end group is shown, it is not given here. [ ]: non-standard residue; d: D form. The star is where a group is joined. PEG4 = NCCOCCOCCOCCOCCC(=O)O; Piperidide = C1CCN(*)CC1

How the values were obtained:
[1] = 50% human serum (from human male AB plasma, US origin; centrifuged to remove the lipid content); details: 37 °C, up to 24 h
H838 cell line = assay type: cell-based; details: 24 h
Description: (§1) MTT assay was conducted as previously described.^[ [44] ^] Tumor cell lines (NCI‐H460, NCI‐H838, HT‐1080, MCF‐7, PC‐3, U‐251‐MG, and U‐87 MG) were seeded in 96‐well plates at a density of 8000 cells per well in a volume of 100 µL and cultured for 24 h. Normal cell lines (HaCaT, HMEC‐1, MRC‐5, and HEK‐293) were seeded in 96‐well plates at a density of 10 000 cells per well in a volume of 100 µL and cultured for 48 h. After that, only tumor cell lines were starved with 100 µL of SFM for a further 4–6 h. Subsequently, cells were treated with 100 µL of compound solutions with different concentrations for 24 h. Cells treated with SFM and 0.5% DMSO in SFM served as blank control and growth control, respectively. Ten µL of MTT solution (5 mg mL^−1) was added to each well, followed by an additional incubation period of 2 h for tumor cells and 4 h for normal cells. Finally, the solvent in each well was swapped with 100 µL of DMSO to dissolve the formazan crystals. The absorbance was measured by the plate reader at 570 nm.
(§2) The cell viability was calculated (1) Cellviability%=ODSamplegroup−ODBlank/ODGrowthgroup−ODBlank×100%

HMEC-1 normal cell line = assay type: cell-based; details: 24 h
Description: as §1, §2

HT-1080 cell line = assay type: cell-based; details: 24 h
Description: as §1, §2

HaCaT normal cell line = assay type: cell-based; details: 24 h
Description: as §1, §2

MRC-5 normal cell line = assay type: cell-based; details: 24 h
Description: as §1, §2

H460 cell line = test: cells; assay type: cell-based; details: 24 h
Description: as §1, §2

HEK-293 normal cell line = test: cells; assay type: cell-based; details: 24 h
Description: as §1, §2

erythrocytes = assay type: cell-based; details: red cells of horse, 2 h
Description: Defibrinated horse blood (1 mL) was washed 3 times with 0.9% NaCl solution to remove plasma and then resuspended in 20 mL of 0.9% NaCl solution to obtain a red blood cell (RBC) suspension. Aliquots of the RBC suspension (100 µL) were incubated with 100 µL of compound solutions at concentrations ranging from 100 to 1.5625 µM (twofold serial dilution) for 2 h at 37 °C. RBCs treated with 0.9% NaCl solution and 1% Triton X‐100 solution served as blank and positive controls, respectively. Subsequently, the samples were centrifuged at 900 × g for 10 min, and the absorbance of the supernatant was measured at 570 nm.
The hemolysis ratio was calculated as (2) Hemolysis%=ODSamplegroup−ODBlank/ODPositivegroup−ODBlank×100%

[2] = system: 5-Fluorouracil-resistance H460 cell line; assay type: cell-based; details: 24 h
Description: as §1
(§3) Wild type H460 cells were cultured in a T‐75 flask and exposed to 30 µM of cisplatin. Cells were passed when the confluency reached 90%. The IC50 value of cisplatin on this cell line was evaluated every two passages. After the IC50 value was higher than 500 µM, the cultured medium was changed to normal CGM, and the cell line was cultured for another three passages. The IC50 value was evaluated again to make sure the resistance was stable. The other three resistance cell lines establishment process was similar. […] Parental NCI‐H460 cells were exposed to 10 µM 5‐fluorouracil, 2.5 µM paclitaxel, or 2.5 µM etoposide to generate 5‐fluorouracil‐resistant, paclitaxel‐resistant, and etoposide‐resistant cell lines, respectively.

[3] = system: Cisplatin-resistance H460 cell line; assay type: cell-based; details: 24 h
Description: as §1, §3

[4] = system: Etoposide-resistance (DR-EPT) H460 cell line; assay type: cell-based; details: 24 h
Description: as §1, §3

[5] = system: Paclitaxel-resistance (DR-PTX) H460 cell line; assay type: cell-based; details: 24 h
Description: as §1, §3

[6] = Compound remaining evaluation in human serum; assay type: in vitro ADME; details: 50% human serum, 37 °C, HPLC peak area, n = 2; up to 6 h (239-4-Ac) or 24 h
Description: Compound solutions (50 µL, 3 mM) were mixed with human serum (50 µL) and incubated for 0, 2, 4, 6, 12, and 24 h at 37 °C. Ethanol (250 µL) was added to precipitate serum proteins, and the samples were centrifuged at 14 000 × g for 20 min at 4 °C. Subsequently, 150 µL of supernatant of each sample was analyzed with analytical HPLC and ESI‐MS/MS. HPLC condition: gradient: 100% solution A to 0% solution A from 0 to 60 min; flow rate: 1 mL min^−1; detector wavelength: 214 nm. Each sample had two replicates.
The compound remaining ratio was calculated as (7) Compoundremaining%=CompoundPeakAreanotat0h/CompoundPeakAreaat0h×100%

FFPKIFDDLE(PIP)SILPKILGPLGLAG-(PEG4)4-NH2
cleaved bond [1]: Phe1-F

ATFFPKIFDDLE(PIP)SILPKIL-NH2
cleaved bond [1]: F-F, major

FFPLIFGALSSILPKIL-NH2 [compound 111, Temporin‐HLa]
IC50 (H838 cell line): 11 ± 1.06 µM | IC50 (HMEC-1 normal cell line): 13.5 ± 0.8 µM | IC50 (HT-1080 cell line): 7.37 ± 0.7 µM | IC50 (HaCaT normal cell line): 13.6 ± 0.91 µM | IC50 (MRC-5 normal cell line): 26.3 ± 2.59 µM | IC50 (H460 cell line): 6.03 ± 0.18 µM | IC50 (HEK-293 normal cell line): 8.03 ± 1.1 µM | HC10 (concentration causing 10% of erythrocytes lysis) (erythrocytes): 6.59 µM | IC50 [2]: 5.14 ± 0.22 µM | IC50 [3]: 5.24 ± 0.15 µM | IC50 [4]: 5.17 ± 0.16 µM | IC50 [5]: 5.54 ± 0.04 µM

AK(Ac)FFPKIFDDLE(PIP)SILPKIL-NH2
fragment found [1]: 239-4-Ac-1 FPKIFDDLE(PIP)SILPKIL-NH2 and 239-4-Ac-2 FFPKIFDDLE(PIP)SILPKIL-NH2

FFPKIFDDLFSILPKIL-NH2 [compound 228]
IC50 (H838 cell line): 26.4 ± 1.78 µM | IC50 (HMEC-1 normal cell line): 30.7 ± 3.14 µM | IC50 (HT-1080 cell line): 30.5 ± 6.05 µM | IC50 (HaCaT normal cell line): 34 ± 2.66 µM | IC50 (MRC-5 normal cell line): 34.1 ± 2.32 µM | IC50 (H460 cell line): 17.5 ± 0.91 µM | IC50 (HEK-293 normal cell line): 13.8 ± 1.42 µM | HC10 (concentration causing 10% of erythrocytes lysis) (erythrocytes): 14.57 µM

AKFFPKIFDDLE(PIP)SILPKILGPLGLAG-(PEG4)6-NH2
not cleaved [1]: nearly 100% remaining ratio after 24 h

CC[C@H](C)[C@H](NC(=O)[C@H](CCCCN)NC(=O)[C@@H]1CCCN1C(=O)[C@H](CC(C)C)NC(=O)[C@@H](NC(=O)[C@H](CO)NC(=O)[C@H](CCC(=O)N1CCCCC1)NC(=O)[C@H](CC(C)C)NC(=O)[C@H](CC(=O)O)NC(=O)[C@H](CC(=O)O)NC(=O)[C@H](Cc1ccccc1)NC(=O)[C@@H](NC(=O)[C@H](CCCCN)NC(=O)[C@@H]1CCCN1C(=O)[C@H](Cc1ccccc1)NC(=O)[C@H](Cc1ccccc1)NC(=O)[C@H](CCCCN)NC(=O)[C@H](C)N)[C@@H](C)CC)[C@@H](C)CC)C(=O)N[C@@H](CC(C)C)C(=O)NCC(=O)N1CCC[C@H]1C(=O)N[C@@H](CC(C)C)C(=O)NCC(=O)N[C@@H](CC(C)C)C(=O)N[C@@H](C)C(=O)NCC(=O)NCCOCCOCCOCCOCCC(=O)NCCOCCOCCOCCOCCC(=O)NCCOCCOCCOCCOCCC(=O)NCCOCCOCCOCCOCCC(N)=O [compound 247] (H-AKFFPKIFDDLE(Piperidide)SILPKILGPLGLAG[PEG4][PEG4][PEG4][PEG4]-NH2)
IC50 (HMEC-1 normal cell line): > 100 µM | IC50 (HaCaT normal cell line): > 100 µM | IC50 (MRC-5 normal cell line): > 100 µM | IC50 (H460 cell line): 29.2 ± 1.33 µM | IC50 (HEK-293 normal cell line): 51.9 ± 5.64 µM | HC10 (concentration causing 10% of erythrocytes lysis) (erythrocytes): >100 µM

CC[C@H](C)[C@H](NC(=O)[C@H](CCCCN)NC(=O)[C@@H]1CCCN1C(=O)[C@H](CC(C)C)NC(=O)[C@@H](NC(=O)[C@H](CO)NC(=O)[C@H](CCC(=O)N1CCCCC1)NC(=O)[C@H](CC(C)C)NC(=O)[C@H](CC(=O)O)NC(=O)[C@H](CC(=O)O)NC(=O)[C@H](Cc1ccccc1)NC(=O)[C@@H](NC(=O)[C@H](CCCCN)NC(=O)[C@@H]1CCCN1C(=O)[C@H](Cc1ccccc1)NC(=O)[C@H](Cc1ccccc1)NC(=O)[C@H](CCCCNC(C)=O)NC(=O)[C@H](C)N)[C@@H](C)CC)[C@@H](C)CC)C(=O)N[C@@H](CC(C)C)C(N)=O [239-4-Ac] (H-AK(Ac)FFPKIFDDLE(Piperidide)SILPKIL-NH2)
degradation in human serum, comparison in words [6]: significantly more prone to degradation

FFPKIFDDLSSILPKIL-NH2 [compound 266]
IC50 (H838 cell line): > 100 µM | IC50 (HMEC-1 normal cell line): > 100 µM | IC50 (HT-1080 cell line): > 100 µM | IC50 (HaCaT normal cell line): > 100 µM | IC50 (MRC-5 normal cell line): > 100 µM | IC50 (H460 cell line): > 100 µM | IC50 (HEK-293 normal cell line): > 100 µM | HC10 (concentration causing 10% of erythrocytes lysis) (erythrocytes): >100 µM

AEFFPKIFDDLE(PIP)SILPKIL-NH2
cleaved bond [1]: Ala-E

FFPKIFDDLE(PIP)SILPKIL-NH2
cleaved bond [1]: Phe1-F

CC[C@H](C)[C@H](NC(=O)[C@H](CCCCN)NC(=O)[C@@H]1CCCN1C(=O)[C@H](CC(C)C)NC(=O)[C@@H](NC(=O)[C@H](CO)NC(=O)[C@H](CCC(=O)N1CCCCC1)NC(=O)[C@H](CC(C)C)NC(=O)[C@H](CC(=O)O)NC(=O)[C@H](CC(=O)O)NC(=O)[C@H](Cc1ccccc1)NC(=O)[C@@H](NC(=O)[C@H](CCCCN)NC(=O)[C@@H]1CCCN1C(=O)[C@H](Cc1ccccc1)NC(=O)[C@H](Cc1ccccc1)NC(=O)[C@H](CCC(=O)O)NC(=O)[C@H](C)N)[C@@H](C)CC)[C@@H](C)CC)C(=O)N[C@@H](CC(C)C)C(N)=O [239-1] (H-AEFFPKIFDDLE(Piperidide)SILPKIL-NH2)
IC50 (H460 cell line): 88.2 µM | IC50 (HEK-293 normal cell line): > 100 µM | HC10 (concentration causing 10% of erythrocytes lysis) (erythrocytes): 97.64 µM

CC[C@H](C)[C@H](NC(=O)[C@H](CCCCN)NC(=O)[C@@H]1CCCN1C(=O)[C@H](CC(C)C)NC(=O)[C@@H](NC(=O)[C@H](CO)NC(=O)[C@H](CCC(=O)N1CCCCC1)NC(=O)[C@H](CC(C)C)NC(=O)[C@H](CC(=O)O)NC(=O)[C@H](CC(=O)O)NC(=O)[C@H](Cc1ccccc1)NC(=O)[C@@H](NC(=O)[C@H](CCCCN)NC(=O)[C@@H]1CCCN1C(=O)[C@H](Cc1ccccc1)NC(=O)[C@H](Cc1ccccc1)NC(=O)[C@H](CCCCN)NC(=O)[C@H](C)N)[C@@H](C)CC)[C@@H](C)CC)C(=O)N[C@@H](CC(C)C)C(N)=O [239-4] (H-AKFFPKIFDDLE(Piperidide)SILPKIL-NH2)
IC50 (H460 cell line): 22.2 ± 1.06 µM | IC50 (HEK-293 normal cell line): 31.5 ± 4.28 µM | HC10 (concentration causing 10% of erythrocytes lysis) (erythrocytes): 25.61 µM

ARFFPKIFDDLE(PIP)SILPKIL-NH2
cleaved bond [1]: R-F, major

CC[C@H](C)[C@H](NC(=O)[C@H](CCCCN)NC(=O)[C@@H]1CCCN1C(=O)[C@H](CC(C)C)NC(=O)[C@@H](NC(=O)[C@H](CO)NC(=O)[C@H](CCC(=O)N1CCCCC1)NC(=O)[C@H](CC(C)C)NC(=O)[C@H](CC(=O)O)NC(=O)[C@H](CC(=O)O)NC(=O)[C@H](Cc1ccccc1)NC(=O)[C@@H](NC(=O)[C@H](CCCCN)NC(=O)[C@@H]1CCCN1C(=O)[C@H](Cc1ccccc1)NC(=O)[C@@H](N)Cc1ccccc1)[C@@H](C)CC)[C@@H](C)CC)C(=O)N[C@@H](CC(C)C)C(=O)NCC(=O)N1CCC[C@H]1C(=O)N[C@@H](CC(C)C)C(=O)NCC(=O)N[C@@H](CC(C)C)C(=O)N[C@@H](C)C(=O)NCC(=O)NCCOCCOCCOCCOCCC(=O)NCCOCCOCCOCCOCCC(N)=O [compound 207] (H-FFPKIFDDLE(Piperidide)SILPKILGPLGLAG[PEG4][PEG4]-NH2)
IC50 (H460 cell line): 28 ± 1.59 µM | IC50 (HEK-293 normal cell line): 44.2 ± 3.21 µM | HC10 (concentration causing 10% of erythrocytes lysis) (erythrocytes): 69.26 µM

AKFFPKIFDDLE(PIP)SILPKIL-NH2
cleaved bond [1]: Ala-K
